Results from publication PMC2225630 (The Journal of General Physiology, 1966).
“And” between values parts separate entries of the source, which are not always exact repeats. Equal entries are not always repeated. Where two headings read alike, the source gives them in different places.

What was measured:
[1] = tested on: Ehrlich cell; format: cell-based, mice; conditions: above 16 mM methionine, modified KRB medium with Na+, 1 min, 37 C, pH 7.4
[2] = tested on: Na+-insensitive uptake, Ehrlich cell; assay: Uptake of amino acids by Ehrlich cells from Na+-free medium; format: cell-based, mice; conditions: for Rate of methionine uptake (Table IV): 1 mM, Na+-free Krebs-Ringer phosphate medium; for uptake (Table II): amino acid 1 mM, [Na+] 0; for Uptake of AIB in presence of inhibitor (Table I): labeled AIB 1 mM; for Uptake of AIB in presence of inhibitor (Table I) / Uptake of labeled amino acid without inhibitor (Table I) / Uptake of methionine in presence of inhibitor (Table I): no Na+; for Uptake of labeled amino acid without inhibitor (Table I): labeled amino acid 1 mM, inhibitor 0; for Ratio of uptake Methionine/other amino acid (Table VI) / Km: absence of Na+; for Km: read-out: Km for the other amino acid (Table V), choline medium, 37 C, pH 7.4, 1 min, only approximate; for inhibitory action on the uptake of methionine: choline has replaced Na+ (Table I); for Uptake of methionine in presence of inhibitor (Table I): labeled methionine 1 mM
[3] = tested on: Na+-sensitive transport system (system A) of the Ehrlich cell; assay: Na+-sensitive uptake of amino acids; format: cell-based, mice
[4] = tested on: Ehrlich cell; conditions: first minute, high amino acid levels; cited from earlier work
[5] = choline chloride substituting for NaCl, Exp. 1
[6] = choline chloride substituting for NaCl, Exp. 2
[7] = sucrose substituting for NaCl, Exp. 1
[8] = sucrose substituting for NaCl, Exp. 2
[9] = [Na+] 107 mEq/liter, 1 min, 37 C, pH 7.4
[10] = methionine 0.25 mM + AIB 1.0 mM, 1 min, 37 C, pH 7.4
[11] = methionine 0.5 mM + AIB 2.0 mM, 1 min, 37 C, pH 7.4
[12] = methionine 1.0 mM + AIB 4.0 mM, 1 min, 37 C, pH 7.4
[13] = read-out: Km of Na+-sensitive uptake, [Na+] 107 mEq/liter, 1 min, 37 C, pH 7.4

CSCC[C@H](N)C(=O)O [methionine, L-methionine]
linear slope of increase of uptake rate with methionine concentration [1]: 0.09 min- l | Rate of methionine uptake (Table IV) ([2]; pH 5.6, Exp. 1): 3.03 mmoles/kg cell water min | Rate of methionine uptake (Table IV) ([2]; pH 5.6, Exp. 2): 2.99 mmoles/kg cell water min | Rate of methionine uptake (Table IV) ([2]; pH 6.3, Exp. 1): 3.03 mmoles/kg cell water min | Rate of methionine uptake (Table IV) ([2]; pH 6.3, Exp. 2): 3.08 mmoles/kg cell water min | Rate of methionine uptake (Table IV) ([2]; pH 7.0, Exp. 1): 2.86 mmoles/kg cell water min | Rate of methionine uptake (Table IV) ([2]; pH 7.0, Exp. 2): 2.87 mmoles/kg cell water min | inhibitory action on the residual uptake of AIB ([2]; Na+ replaced with choline+ (Table I)): negligible inhibitory action | distribution ratio (cellular level to extracellular level) ([2]; after 1 min, all Na+ eliminated from the medium): 2.25 | uptake (Table II) [2, 5]: 1.35 mmoles/kg cell water min | uptake (Table II) [2, 6]: 2.48 mmoles/kg cell water min | uptake (Table II) [2, 7]: 1.44 mmoles/kg cell water min | uptake (Table II) [2, 8]: 2.79 mmoles/kg cell water min | Uptake of AIB in presence of inhibitor (Table I) ([2]; inhibitor 0.5 mM): 0.17 mmoles/kg cell water-min | Uptake of AIB in presence of inhibitor (Table I) ([2]; inhibitor 1 mM): 0.14 mmoles/kg cell water-min | Uptake of labeled amino acid without inhibitor (Table I) ([2]; experiment with AIB as inhibitor): 2.68 mmoles/kg cell water-min | Uptake of labeled amino acid without inhibitor (Table I) ([2]; experiment with MeAIB as inhibitor): 1.77 mmoles/kg cell water-min | Ratio of uptake Methionine/other amino acid (Table VI) ([2]; methionine and leucine, each 0.2 mM): 0.99 | Ratio of uptake Methionine/other amino acid (Table VI) ([2]; methionine and leucine, each 0.4 mM): 0.94 | Ratio of uptake Methionine/other amino acid (Table VI) ([2]; methionine and leucine, each 0.8 mM): 0.92 | Ratio of uptake Methionine/other amino acid (Table VI) ([2]; methionine and leucine, each 1.6 mM): 0.99 | Ratio of uptake Methionine/other amino acid (Table VI) ([2]; methionine and valine, each 0.25 mM): 3.2 | Ratio of uptake Methionine/other amino acid (Table VI) ([2]; methionine and valine, each 0.5 mM): 2.18 | Ratio of uptake Methionine/other amino acid (Table VI) ([2]; methionine and valine, each 1.0 mM): 1.65 | Ratio of uptake Methionine/other amino acid (Table VI) ([2]; methionine and valine, each 2.0 mM): 1.33 | inhibition of the saturable uptake of AIB ([3]; Na+ at 107 mEq/liter, Fig. 10): so nearly complete | Vmax of Na+-sensitive uptake [3, 9]: 4 mmoles/kg cell water min and 3.7 mmoles/kg cell water min | Vmax, velocities extrapolated to infinite [Na+] [3]: 5.0 mM/kg cell water min | inhibition of the uptake of MeAIB ([3]; in the presence of Na+): inhibits almost completely | Ratio of uptake rates methionine/AIB (Table III) ([3]; methionine 0.25 mM + AIB 1.0 mM): 1.1 | Sodium-sensitive uptake rate of the test amino acid in mixture (Table III) [3, 10]: 0.58 mmoles/kg cell water min | Ratio of uptake rates methionine/AIB (Table III) ([3]; methionine 0.5 mM + AIB 2.0 mM): 1.5 | Sodium-sensitive uptake rate of the test amino acid in mixture (Table III) [3, 11]: 0.99 mmoles/kg cell water min | Ratio of uptake rates methionine/AIB (Table III) ([3]; methionine 1.0 mM + AIB 4.0 mM): 1.4 | Sodium-sensitive uptake rate of the test amino acid in mixture (Table III) [3, 12]: 1.04 mmoles/kg cell water min | Km [3, 13]: 300 µM | Km ([3]; read-out: Km, velocities extrapolated to infinite [Na+], data of Fig. 12 left): 140 µM

CC(C)C[C@H](N)C(=O)O [leucine]
Km [2]: 150 µM

NCC(=O)O [glycine]
Vmax of Na+-sensitive uptake ([3]; difference method of Fig. 5): 7.4 mmoles per kg cell water min

CNC(C)(C)C(=O)O [MeAIB, α-(methylamino)-isobutyric acid, reference compound]
inhibitory action on the uptake of methionine [2]: no significant action | Uptake of methionine in presence of inhibitor (Table I) ([2]; inhibitor 16 mM): 1.77 mmoles/kg cell water-min | Km [3, 13]: ~300 µM

C[C@H](N)C(=O)O [alanine]
Vmax of Na+-sensitive uptake ([3]; difference method of Fig. 5): 6.4 mmoles per kg cell water min

CC(C)(N)C(=O)O [AIB, a-aminoisobutyric acid, reference compound]
rate of permeation at high levels ("nonsaturable" migration) [4]: 0.1 min-' | uptake (Table II) [2, 5]: 0.16 mmoles/kg cell water min | uptake (Table II) [2, 6]: 0.21 mmoles/kg cell water min | uptake (Table II) [2, 7]: 0.21 mmoles/kg cell water min | uptake (Table II) [2, 8]: 0.29 mmoles/kg cell water min | inhibitory action on the uptake of methionine [2]: no significant inhibitory action | Uptake of methionine in presence of inhibitor (Table I) ([2]; inhibitor 4 mM): 2.63 mmoles/kg cell water-min | Uptake of methionine in presence of inhibitor (Table I) ([2]; inhibitor 8 mM): 2.62 mmoles/kg cell water-min | Vmax of Na+-sensitive uptake [3, 9]: 5 mmoles/kg cell water min | Vmax, velocities extrapolated to infinite [Na+] [3]: 7.1 mM/kg cell water min | Sodium-sensitive uptake rate of the test amino acid in mixture (Table III) [3, 10]: 0.51 mmoles/kg cell water min | Sodium-sensitive uptake rate of the test amino acid in mixture (Table III) [3, 11]: 0.64 mmoles/kg cell water min | Sodium-sensitive uptake rate of the test amino acid in mixture (Table III) [3, 12]: 0.77 mmoles/kg cell water min | Km [3, 13]: 2000 µM

CC(C)[C@H](N)C(=O)O [valine]
Km [2]: 750 µM
